The values below come from article PMC10202359, “Nicotinamide N-methyltransferase (NNMT) regulates the glucocorticoid signaling pathway during the early phase of adipogenesis” (Scientific Reports, 2023).

Read-outs that look alike come from different tables or passages of the source.

The target of assay [1] is T1, DNMT3b (Homo sapiens, UniProt Q9UBC3).
T1 construct: purchased Reaction Biology Corporation
The assay can be described thus: Methyltransferase Hot Spot radioisotope assay, DNMT3b. In kind it is biochemical. As to conditions: 10-dose, threefold dilution; CC-410 from 300 μM, control from 100 μM; substrate Lambda DNA. The procedure:
(§1) CC-410 was screened in biochemical assays for activity against a panel of 11 methyltransferases (MT) by using the radioisotope (3H-AdoMet) based MT Hot Spot Assay. All the assays were performed by Reaction Biology Corporation (RBC, Malven, PA, USA). Briefly CC-410 was incubated with the selected MTs, corresponding substrates, and radiolabeled SAM (S-Adenosyl-L-[methyl-3 H]methionine). The specific MTs assessed, and the corresponding substrates are as follows: DNMT1- Poly dl-dC, DNMT3a- Lambda DNA, DNMT3b- Lambda DNA, DOT1L- Nucleosomes, EZH2 Complex- Core Histone, METTL21A- HSPA8-[CTD], NRMT1- RCC1, PRMT3- Histone H4, PRMT5/MEP50- Histone H2A, SET1b -Core Histone Complex and SMYD2- Nucleosomes. Reaction mixtures were incubated and spotted onto filter papers, which were then washed to remove unreacted SAM, leaving the bound radiolabeled product. Detection of the radiolabeled, methylated product was performed via a nanoliter-scale radioisotope filter binding platform. […] For each assay, control compounds were included as positive controls for enzyme function and assay reproducibility. […] IC50 was calculated by non-linear least square fitting dose–response curve.

The target of assay [2] is T2, PRMT5/MEP50 (Homo sapiens, UniProt O14744).
T2 construct: purchased Reaction Biology Corporation
The assay can be described thus: Methyltransferase Hot Spot radioisotope assay, PRMT5/MEP50. In kind it is biochemical. The conditions noted are these: 10-dose, threefold dilution; CC-410 from 300 μM, control from 100 μM; substrate Histone H2A. The method, then:
as §1

Assay [3] is described as follows: Lilly Open Innovation Drug Discovery high throughput screening. The source says:
CC-410 chemical structure was initially submitted to the Open Innovation Drug Discovery program[39] (Lilly Research Laboratories, Eli Lilly and Company, Indianapolis, USA), and it was selected for its novelty and drug-like properties, based on cheminformatic evaluation. Briefly, the submitted molecular structure was firstly processed based on the Lilly Medical Chemistry Rules, which are aimed at identifying and eventually excluding from screening those compounds that may interfere with biological assays. Next, structure-based filters, including MW, cLogP, solubility and toxicity among others were analyzed to select molecules with high druggable features. Additionally, the compound was also filtered based on the number of heavy atoms, number of rings, number of aromatic rings, ring size and other physicochemical properties. Solubility and permeability of the compound were also considered for the screening. For molecules passing the cheminformatic evaluation a substance check and comparison with known drugs (both Lilly and PubChem collections) was performed in order to select for novelty. Once the molecule passed this selection it was physically submitted to be tested with a high throughput screening study, querying the activity of the molecule against a wide variety of possible therapeutic targets.

Assay [4] concerns the target T3, human NNMT (Homo sapiens, UniProt P40261).
T3 sequence (P40261 1-264): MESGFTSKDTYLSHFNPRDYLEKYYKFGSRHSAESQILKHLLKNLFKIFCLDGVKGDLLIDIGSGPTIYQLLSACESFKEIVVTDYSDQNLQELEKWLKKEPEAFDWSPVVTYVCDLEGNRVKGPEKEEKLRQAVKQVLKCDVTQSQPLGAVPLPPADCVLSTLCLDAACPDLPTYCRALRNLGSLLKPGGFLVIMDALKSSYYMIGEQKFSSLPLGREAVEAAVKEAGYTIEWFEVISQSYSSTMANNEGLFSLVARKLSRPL
Nature of the assay: hNNMT enzymatic modulation, RapidFire SPE LC/MS assay (Lilly). In kind it is biochemical.

Assay [5] deals with 3T3-L1 cells. The assay can be described thus: Oil Red-O staining of adipocyte differentiation, 3T3-L1. The conditions noted are these: for reduction of adipogenesis (Oil Red-O quantification) compared to untreated control: treatment throughout the differentiation process (during adipogenesis). In kind it is cell-based, mouse. The method, then:
3T3-L1 Mouse Embryonic Fibroblasts were purchased from American Type Culture Collection (ATCC CL-173). The cells were propagated and maintained in Dulbecco’s modified Eagle’s medium (DMEM, Gibco) supplemented with 10% calf serum (FCS) at 37 °C in 5% CO2 atmosphere. Subconfluents cells were expanded and utilized for the subsequent experiments at the passages 3–6. To induce differentiation, 2-day post-confluent 3T3-L1 pre-adipocytes were cultured for 48 h with DIM (DMEM supplemented with 10% fetal bovine serum (FBS), 1.0 µM Dexamethasone (G. Biosciences), […] Insulin (Sigma) and 0.5 mM IBMX (Sigma). Two days after induction the DIM medium was removed and the cells were maintained in DMED supplemented with 10% FBS and […] Insulin, which was replaced every 48 h, until the cells became fully differentiated (8–10 days after induction). C3H10T1/2 cells were purchased from American Type Culture Collection (ATCC, clone 8, CCL-226, were grown and induced to differentiate following the same protocol, with cell cultures < 3 passages. Oil Red-O staining was used as previously described. Briefly, cells were fixed for 30 min with 4% formaldehyde, stained with filtered Oil Red solution (0.2% oil red in 40% 2-propanol) and washed 5 times with distilled water. The accumulation of fat droplets in the cells was visualized and photographed under an inverted microscope (DMi1, Leica). The dye was eluted with 100% 2-propanol and quantified spectroscopically at 510 nm (Synergy HT, Bio-Tek).

The target in assay [6] is DNMT1 (Homo sapiens, UniProt P26358). Nature of the assay: Methyltransferase Hot Spot radioisotope assay, DNMT1. The class given is biochemical. As to conditions: 10-dose, threefold dilution; CC-410 from 300 μM, control from 100 μM; substrate Poly dI-dC. The procedure: as §1
Assay [7] has as its target T4, EZH2 Complex (Homo sapiens, UniProt Q15910).
T4 construct: purchased Reaction Biology Corporation
Nature of the assay: Methyltransferase Hot Spot radioisotope assay, EZH2 Complex. The class given is biochemical. As to conditions: 10-dose, threefold dilution; CC-410 from 300 μM, control from 100 μM; substrate Core Histone. The method, then: as §1

Assay [8] deals with T5, NRMT1 (Homo sapiens, UniProt Q9BV86).
T5 sequence (Q9BV86 1-223): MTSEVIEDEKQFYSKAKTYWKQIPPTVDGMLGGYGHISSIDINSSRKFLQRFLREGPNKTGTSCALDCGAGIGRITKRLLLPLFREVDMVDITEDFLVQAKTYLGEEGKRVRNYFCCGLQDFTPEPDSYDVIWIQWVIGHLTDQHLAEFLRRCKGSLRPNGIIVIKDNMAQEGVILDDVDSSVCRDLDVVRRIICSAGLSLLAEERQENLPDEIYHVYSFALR
Nature of the assay: Methyltransferase Hot Spot radioisotope assay, NRMT1. In kind it is biochemical. The conditions noted are these: 10-dose, threefold dilution; CC-410 from 300 μM, control from 100 μM; substrate RCC1. The procedure: as §1

For assay [9], the target named is T6, DOT1L (Homo sapiens, UniProt Q8TEK3).
T6 construct: purchased Reaction Biology Corporation
The assay can be described thus: Methyltransferase Hot Spot radioisotope assay, DOT1L. The class given is biochemical. As to conditions: 10-dose, threefold dilution; CC-410 from 300 μM, control from 100 μM; substrate Nucleosomes. The procedure:
as §1

For assay [10], the target named is T7, SMYD2 (Homo sapiens, UniProt Q9NRG4).
T7 construct: purchased Reaction Biology Corporation
The assay can be described thus: Methyltransferase Hot Spot radioisotope assay, SMYD2. In kind it is biochemical. The procedure:
as §1

DNMT1, sequence (P26358 whole entry, species assumed): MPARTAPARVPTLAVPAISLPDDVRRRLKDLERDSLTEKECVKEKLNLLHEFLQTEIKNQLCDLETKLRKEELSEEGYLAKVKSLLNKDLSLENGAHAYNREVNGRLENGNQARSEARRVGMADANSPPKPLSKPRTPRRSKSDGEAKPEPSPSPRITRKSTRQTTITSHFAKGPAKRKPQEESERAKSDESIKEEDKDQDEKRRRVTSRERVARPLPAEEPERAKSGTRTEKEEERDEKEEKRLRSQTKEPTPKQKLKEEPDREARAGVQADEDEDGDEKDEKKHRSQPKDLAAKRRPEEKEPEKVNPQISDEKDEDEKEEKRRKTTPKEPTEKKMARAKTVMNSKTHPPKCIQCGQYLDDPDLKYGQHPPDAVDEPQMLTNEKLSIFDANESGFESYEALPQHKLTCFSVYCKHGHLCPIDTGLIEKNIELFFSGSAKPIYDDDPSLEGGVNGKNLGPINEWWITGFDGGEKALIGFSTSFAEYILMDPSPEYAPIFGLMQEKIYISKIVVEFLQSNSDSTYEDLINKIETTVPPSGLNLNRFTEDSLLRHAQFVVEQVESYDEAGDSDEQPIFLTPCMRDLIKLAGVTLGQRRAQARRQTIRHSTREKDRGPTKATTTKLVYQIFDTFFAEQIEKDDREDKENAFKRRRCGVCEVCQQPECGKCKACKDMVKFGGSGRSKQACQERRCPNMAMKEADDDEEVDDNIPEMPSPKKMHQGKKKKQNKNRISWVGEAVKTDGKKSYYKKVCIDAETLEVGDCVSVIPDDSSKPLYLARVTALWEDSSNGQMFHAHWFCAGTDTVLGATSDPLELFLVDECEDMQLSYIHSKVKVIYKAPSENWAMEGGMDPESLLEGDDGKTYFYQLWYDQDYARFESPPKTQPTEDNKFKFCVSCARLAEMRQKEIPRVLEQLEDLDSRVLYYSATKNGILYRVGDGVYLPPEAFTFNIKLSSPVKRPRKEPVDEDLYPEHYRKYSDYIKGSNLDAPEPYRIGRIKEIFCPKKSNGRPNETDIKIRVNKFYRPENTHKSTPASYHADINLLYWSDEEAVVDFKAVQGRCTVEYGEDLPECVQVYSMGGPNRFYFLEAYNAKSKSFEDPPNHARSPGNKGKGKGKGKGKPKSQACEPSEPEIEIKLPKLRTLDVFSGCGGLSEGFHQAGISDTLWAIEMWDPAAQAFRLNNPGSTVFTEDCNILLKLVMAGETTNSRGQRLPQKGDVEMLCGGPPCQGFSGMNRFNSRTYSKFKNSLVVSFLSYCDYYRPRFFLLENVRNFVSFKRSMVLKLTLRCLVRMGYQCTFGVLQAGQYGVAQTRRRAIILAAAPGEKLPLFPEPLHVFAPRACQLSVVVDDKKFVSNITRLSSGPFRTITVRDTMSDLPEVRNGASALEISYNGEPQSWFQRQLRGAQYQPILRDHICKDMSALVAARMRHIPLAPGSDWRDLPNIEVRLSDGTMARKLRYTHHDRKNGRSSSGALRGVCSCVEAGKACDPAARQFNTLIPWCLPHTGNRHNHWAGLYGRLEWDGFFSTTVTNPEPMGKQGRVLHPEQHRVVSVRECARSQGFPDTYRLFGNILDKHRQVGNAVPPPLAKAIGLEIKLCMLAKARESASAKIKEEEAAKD
T4 sequence (Q15910 whole entry): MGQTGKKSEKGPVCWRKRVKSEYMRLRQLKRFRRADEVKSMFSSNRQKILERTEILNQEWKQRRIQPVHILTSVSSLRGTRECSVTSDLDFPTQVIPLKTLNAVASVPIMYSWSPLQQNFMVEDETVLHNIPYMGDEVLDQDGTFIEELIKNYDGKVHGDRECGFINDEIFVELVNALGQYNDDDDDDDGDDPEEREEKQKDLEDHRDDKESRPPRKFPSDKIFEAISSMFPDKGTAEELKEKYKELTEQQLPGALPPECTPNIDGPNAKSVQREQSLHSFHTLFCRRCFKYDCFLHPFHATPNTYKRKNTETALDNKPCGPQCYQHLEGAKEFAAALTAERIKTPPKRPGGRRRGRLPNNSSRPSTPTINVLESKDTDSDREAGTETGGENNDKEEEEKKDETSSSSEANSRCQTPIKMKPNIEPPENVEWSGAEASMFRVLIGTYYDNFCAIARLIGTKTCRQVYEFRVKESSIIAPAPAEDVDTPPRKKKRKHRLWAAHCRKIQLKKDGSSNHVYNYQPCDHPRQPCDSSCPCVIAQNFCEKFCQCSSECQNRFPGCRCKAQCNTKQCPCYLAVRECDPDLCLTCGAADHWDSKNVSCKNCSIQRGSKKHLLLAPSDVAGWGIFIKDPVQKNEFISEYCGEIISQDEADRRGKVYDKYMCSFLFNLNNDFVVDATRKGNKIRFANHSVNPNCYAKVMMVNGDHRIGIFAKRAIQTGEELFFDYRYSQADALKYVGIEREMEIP
T4 sequence (O75530 whole entry partner): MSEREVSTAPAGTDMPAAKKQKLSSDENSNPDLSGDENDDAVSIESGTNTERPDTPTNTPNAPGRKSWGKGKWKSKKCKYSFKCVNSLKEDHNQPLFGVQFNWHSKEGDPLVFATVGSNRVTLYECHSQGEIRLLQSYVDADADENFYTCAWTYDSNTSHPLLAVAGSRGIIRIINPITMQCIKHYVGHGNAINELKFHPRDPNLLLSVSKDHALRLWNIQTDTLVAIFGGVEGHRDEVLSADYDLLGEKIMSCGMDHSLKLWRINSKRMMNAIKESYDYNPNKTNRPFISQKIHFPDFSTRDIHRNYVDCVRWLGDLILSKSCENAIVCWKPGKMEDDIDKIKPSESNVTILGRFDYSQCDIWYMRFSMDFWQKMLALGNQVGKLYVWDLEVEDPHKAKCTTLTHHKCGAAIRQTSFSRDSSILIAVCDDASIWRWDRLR
T4 sequence (Q15022 whole entry partner): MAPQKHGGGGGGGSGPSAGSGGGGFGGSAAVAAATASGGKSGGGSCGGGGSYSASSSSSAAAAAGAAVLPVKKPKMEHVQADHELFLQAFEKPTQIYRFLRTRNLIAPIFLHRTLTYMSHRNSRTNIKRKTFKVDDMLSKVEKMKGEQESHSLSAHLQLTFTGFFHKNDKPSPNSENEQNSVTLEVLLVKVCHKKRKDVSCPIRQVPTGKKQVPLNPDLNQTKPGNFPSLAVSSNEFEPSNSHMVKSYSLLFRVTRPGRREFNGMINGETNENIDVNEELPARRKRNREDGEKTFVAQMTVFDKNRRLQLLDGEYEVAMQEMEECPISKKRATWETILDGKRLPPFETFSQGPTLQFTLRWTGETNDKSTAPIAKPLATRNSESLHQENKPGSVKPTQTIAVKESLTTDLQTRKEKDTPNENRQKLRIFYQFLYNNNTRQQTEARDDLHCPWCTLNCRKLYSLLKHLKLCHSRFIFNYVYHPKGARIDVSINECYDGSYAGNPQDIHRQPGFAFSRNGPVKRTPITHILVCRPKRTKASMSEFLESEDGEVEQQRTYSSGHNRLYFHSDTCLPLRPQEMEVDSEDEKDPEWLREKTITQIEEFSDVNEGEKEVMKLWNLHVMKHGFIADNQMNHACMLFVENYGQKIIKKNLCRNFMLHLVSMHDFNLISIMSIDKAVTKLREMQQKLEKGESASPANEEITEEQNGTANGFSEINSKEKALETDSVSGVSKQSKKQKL
T4 sequence (Q09028 whole entry partner): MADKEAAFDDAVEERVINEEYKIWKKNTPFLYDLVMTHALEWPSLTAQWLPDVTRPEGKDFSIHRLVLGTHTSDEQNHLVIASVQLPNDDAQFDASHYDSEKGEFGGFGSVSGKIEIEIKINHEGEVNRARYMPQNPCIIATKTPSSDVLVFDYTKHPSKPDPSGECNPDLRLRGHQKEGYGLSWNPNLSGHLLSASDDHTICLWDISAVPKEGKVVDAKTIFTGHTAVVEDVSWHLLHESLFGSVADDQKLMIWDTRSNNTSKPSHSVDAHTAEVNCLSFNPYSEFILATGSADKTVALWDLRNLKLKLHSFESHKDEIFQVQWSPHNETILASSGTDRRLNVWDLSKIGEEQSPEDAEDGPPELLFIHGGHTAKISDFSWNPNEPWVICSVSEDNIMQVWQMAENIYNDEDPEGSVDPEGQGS
T4 sequence (Q6ZN18 whole entry partner): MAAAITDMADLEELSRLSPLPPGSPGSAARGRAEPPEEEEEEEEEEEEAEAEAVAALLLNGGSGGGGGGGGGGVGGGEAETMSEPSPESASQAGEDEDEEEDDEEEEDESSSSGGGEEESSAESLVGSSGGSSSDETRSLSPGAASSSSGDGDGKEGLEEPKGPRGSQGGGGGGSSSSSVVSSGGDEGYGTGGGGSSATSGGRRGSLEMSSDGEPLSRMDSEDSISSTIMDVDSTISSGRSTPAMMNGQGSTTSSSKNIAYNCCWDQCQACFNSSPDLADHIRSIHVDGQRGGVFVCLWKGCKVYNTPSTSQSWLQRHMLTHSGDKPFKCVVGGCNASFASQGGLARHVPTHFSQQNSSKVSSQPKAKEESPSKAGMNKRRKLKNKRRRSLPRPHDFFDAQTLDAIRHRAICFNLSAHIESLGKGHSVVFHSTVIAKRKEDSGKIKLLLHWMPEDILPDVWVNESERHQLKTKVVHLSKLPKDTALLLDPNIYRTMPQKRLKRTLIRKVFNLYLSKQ
T7 sequence (Q9NRG4 whole entry, species assumed): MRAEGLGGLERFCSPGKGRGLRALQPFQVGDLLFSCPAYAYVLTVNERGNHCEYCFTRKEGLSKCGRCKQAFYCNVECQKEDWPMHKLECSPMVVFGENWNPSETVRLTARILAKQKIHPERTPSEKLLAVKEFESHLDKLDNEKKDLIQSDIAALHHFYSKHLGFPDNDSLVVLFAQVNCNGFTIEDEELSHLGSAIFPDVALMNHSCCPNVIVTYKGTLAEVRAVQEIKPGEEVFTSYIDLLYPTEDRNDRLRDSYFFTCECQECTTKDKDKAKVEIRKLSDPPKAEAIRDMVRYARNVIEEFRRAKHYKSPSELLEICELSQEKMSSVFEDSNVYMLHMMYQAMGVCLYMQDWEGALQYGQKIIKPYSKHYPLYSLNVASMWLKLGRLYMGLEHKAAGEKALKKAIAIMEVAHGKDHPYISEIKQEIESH

By IC50 is commonly meant the midpoint of a concentration-inhibition curve. With `COC(=O)CCC(C)C1CCC2C3C(N)CC4CC(OC(C)=O)CCC4(C)[C@H]3CC(N)C12C` (stereo in doubt) [CC-410, Methyl-(4S)-4-((3S,5S,7S,8S,10R,12R,13S,14R,17S)-3-acetoxy-7,12-diamino-10,13-dimethylhexadecahydro-1H-cyclopenta[a]phenanthren-17-yl) pentanoate], the “IC50* (M) DNMT3b” value in assay [1] is “no inhibition or compound activity that could not be fitted to an IC50 curve”. Also, in [2], the “IC50* (M) PRMT5/MEP50” value is listed as “no inhibition or compound activity that could not be fitted to an IC50 curve”. In addition, the “activity against a wide variety of possible therapeutic targets” value in [3] is reported as “exclusive inhibitory activity against human NNMT”. For the same molecule, the concentration for half-maximal inhibition (IC50) in assay [4] (MNAM product readout, LC/MS, Fig. 4B, read-out: hNNMT MNAN Rel IC50) is 1640 nM; in [4] (automated solid-phase extraction and LC-MS, read-out: IC50 against human NNMT), 1600 nM; in assay [4] (hNNMT SAH Rel IC50, SAH product readout, LC/MS, Fig. 4B), 1700 nM; in [10], 34300 nM. Moreover, the “reduction of adipogenesis (Oil Red-O quantification) compared to untreated control” value was 60% in assay [5] (15 µM) and 80% in assay [5] (25 µM). For the same molecule, the inhibition of adipogenesis in assay [5] (administered in the first 20 h after hormonal induction, highest concentration tested) was 50%. Moreover, the effect on adipogenesis result in assay [5] (continuously dispensed after the early phase of adipogenesis) is on record as “no anti-adipogenic effect was evident”; in [5] (treatment during the 48 h of DEX stimulation, followed by IBMX 48 h), “strongly impaired adipogenesis”; in assay [5] (treatment during the early phase (from T0 to 48 h)) it was “markedly reduced adipogenesis, with levels analogous to continuous treatment”. Further, the “IC50* (M) DNMT1” value in assay [6] is on record as “no inhibition or compound activity that could not be fitted to an IC50 curve”. The “IC50* (M) EZH2 Complex” value in assay [7] is reported as “no inhibition or compound activity that could not be fitted to an IC50 curve”. For the same molecule, the “IC50* (M) NRMT1” value in assay [8] is on record as “no inhibition or compound activity that could not be fitted to an IC50 curve”. The “IC50* (M) DOT1L” value in [9] was “no inhibition or compound activity that could not be fitted to an IC50 curve”.
